In ChEMBL document CHEMBL1126737, “Toward a novel metal-based chemotherapy against tropical diseases. 1. Enhancement of the efficacy of clotrimazole against Trypanosoma cruzi by complexation to ruthenium in RuCl2(clotrimazole)2” (J Med Chem, 1993):

Tests used:
[1] = test system: Vero; assay: Effective concentration to inhibit the proliferation of amastigote form of the parasite grown on mammalian (Vero) cells; assay type: functional, cell-based, Chlorocebus sabaeus
[2] = Effective concentration that inhibits growth of Trypanosoma cruzi by 50% was reported; assay type: functional
[3] = test system: Trypanosoma cruzi; assay: Inhibition of the proliferation of epimastigote form of Trypanosoma cruzi was determined at 10 e-5 M; assay type: functional

Compound	EC50 [1] [µM]	EC50 [2] [µM]	inhibition [3] [%]
RuCl2(clotrimazole)2 [listing 1 of 2 here]	0.005	0.1	
RuCl2(clotrimazole)2 [listing 2 of 2 here]			90
Clc1ccccc1C(c1ccccc1)(c1ccccc1)n1ccnc1 [CLOTRIMAZOLE]		3	
